Literature values as cited in patent US20160045473A1, “Biological Basis Of Adult Wellness” (priority 2012, published 2016).

Details: healthy volunteers, at least one study

Question: For `O=C(O)[C@@H]1CCCN1` [proline, L-proline], which absorption is on record?
Answer: well absorbed
